Results: patent publication US6858642B1, “Indole derivatives” (Neurim Pharmaceuticals (1991) Ltd., priority 1999, dated 2005)
Like-named read-outs stand apart in the source and are kept apart here.

How the values were obtained:
[1] = Scavenging activity on DPPH radicals (antioxidant effect); details: 10 μM addition; decrease in A517 of DPPH after 20 min at room temperature
Experimental: Radical scavenging activity was assayed in duplicates according to Blois, M. S., Nature, 1958, 181:1199. The reaction mixture contained 3 ml of 01 mM DPPH (in 95% ethanol) and 0.5 ml of the test compound. After 20 min. incubation at room temperature A517 was determined. The scavenging activity was measured as the decrease in A517 of the DPPH radical expressed as a percentage of the control value.

[2] = system: adult castrated male rats; experiment: Androgen-dependent regrowth of ventral prostate and seminal vesicles in castrated rats, compounds given orally in drinking water; type: in vivo, rat; details: for Relative potency on testosterone-mediated prostate re-growth: comparison among compounds; for Dose dependence of the effect on prostate re-growth: 0.01 to 10 mg/l drinking water; for IC50: Rattus norvegicus, feed or water, read-out: IC50 on prostate re-growth
Excerpt: The effects of orally administered compounds of the invention, MLP-76,77, 79 and 92, on androgen-dependent prostatal regrowth in adult castrated male rats was investigated Male rats (2.5 months old) were castrated under anesthesia and left to recover for 7 days. During this period, the average weight of the prostate decreased by approximately 75%. Beginning on day 7 after castration, the rats were given daily subcutaneous injections of either oil vehicle (control) or oil vehicle containing testosterone propionate (1 mg/kg body weight per day) for 4 days at 1 hour before lights off. […] In the morning following the last inject ion, the rats were sacrificed and the seminal vesicles and ventral prostates were removed and weighed.

[3] = Distribution of 125I-labelled compounds in organs of the adult male rat 1 h after ip injection; type: in vivo; details: retention pattern 1 h after ip injection
Experimental: The distribution of MLP-92 and MLP-77 in various organs of the rat was examined. 100 mcl saline containing 1×10^6 dpm ^125l-labelled compounds of the invention (labelling as described by Vakkuri et al., Acta Endocrinol., 106, 152-7, 1984) were injected (ip) to adult male rats. The rats were sacrificed 1 h after injection and various organs were dissected out and weighted. The contents of the radioactive derivatives in the rat organs (Brain, Hypothalamus, Pituitary, Eyes, Thyroid, Heart, Lungs, Kidneys. Spleen, Testis, Prostate and seminal vesicle) were determined using a gamma-counter and the results are presented as dpm/g organ wet-weight.

[4] = Table 2, 10 mg/l drinking water
[5] = Table 2, testosterone + compound 10 mg/l drinking water, 4 days
[6] = Table 3, 0.01 mg/l drinking water
[7] = Table 3, 0.1 mg/l drinking water
[8] = Table 3, testosterone + compound 0.01 mg/l drinking water
[9] = Table 3, testosterone + compound 0.1 mg/l drinking water
[10] = Table 2, testosterone propionate 1 mg/kg per day sc alone, 4 days
[11] = Table 3 (second group), testosterone propionate 1 mg/kg per day sc alone

Compound | Relative ratio of scavenging activity compared with Vitamin E (tocopherol) [1] | A = % inhibition of testosterone-stimulated growth (prostate) [2, 4] [%] | B = % inhibition of testosterone-stimulated growth (seminal vesicles) [2, 4] [%] | Prostate (mg/g body weight) [2, 5] [mg/g body weight] | Seminal Vesicles (mg/g body weight) [2, 5] [mg/g body weight] | Accumulation in the prostate [3] | further results
O=C(O)C=Cc1ccc(O)c(O)c1 [Caffeic acid, 3,4-Dihydroxycinnamic acid] | 2.8 | – | – | – | – | – | –
COc1ccc2[nH]cc(CCNC(=O)c3ccco3)c2c1 [MLP-76, 5-Methoxy-3-(2-(2-furamido)ethyl)indole] | – | 66 | 44 | 0.49 ± 0.09 | 1.82 ± 0.25 | – | Relative potency on testosterone-mediated prostate re-growth ([2]; Table 2): more potent then MLP-79, MLP-77 and melatonin
COc1ccc2[nH]cc(CCNC(=O)c3ccccc3OC(C)=O)c2c1 [MLP-77] | – | 40 | −18 | 0.57 ± 0.05 | 2.69 ± 0.49 | selective accumulation | –
COc1ccc2[nH]cc(CCNC(=O)C3CCCO3)c2c1 (stereo not drawn) [MLP-79, 5-Methoxy-3-(2-(tetrahydro-2-furamido)ethyl)indole] | – | 54 | 23 | 0.50 ± 0.04 | 2.00 ± 0.39 | selective accumulation | –
COc1ccc2[nH]cc(CCNCC3CCCO3)c2c1 (stereo not drawn) [MLP-92, 5-Methoxy-3-(2-(tetrahydro2-furylmethylamino)ethyl)indole] | – | 66 | 51 | 0.49 ± 0.04 | 1.54 ± 0.21 | selective accumulation | Dose dependence of the effect on prostate re-growth [2]: dose-dependent; IC50 [2]: 88 nM; A = % inhibition of testosterone-stimulated growth (prostate) [2, 6]: 19%; B = % inhibition of testosterone-stimulated growth (seminal vesicles) [2, 6]: 28%; A = % inhibition of testosterone-stimulated growth (prostate) [2, 7]: 62%; B = % inhibition of testosterone-stimulated growth (seminal vesicles) [2, 7]: 37%; Prostate (mg/g body weight) [2, 8]: 0.57 ± 0.04 mg/g body weight; Seminal Vesicles (mg/g body weight) [2, 8]: 1.57 ± 0.25 mg/g body weight; Prostate (mg/g body weight) [2, 9]: 0.46 ± 0.1 mg/g body weight; Seminal Vesicles (mg/g body weight) [2, 9]: 1.45 ± 0.13 mg/g body weight; Relative potency on testosterone-mediated prostate re-growth ([2]; Table 2): more potent then MLP-79, MLP-77 and melatonin
COc1ccc2[nH]cc(CCNC(C)=O)c2c1 [Melatonin, reference compound] | – | 44 | 30 | 0.55 ± 0.08 | 1.88 ± 0.03 | – | Dose dependence of the effect on prostate re-growth [2]: dose-dependent; IC50 ([2]; dose-dependent effect, compound in drinking water): 230 nM; A = % inhibition of testosterone-stimulated growth (prostate) [2, 6]: −15%; B = % inhibition of testosterone-stimulated growth (seminal vesicles) [2, 6]: 10%; A = % inhibition of testosterone-stimulated growth (prostate) [2, 7]: 31%; B = % inhibition of testosterone-stimulated growth (seminal vesicles) [2, 7]: 30%; Prostate (mg/g body weight) [2, 8]: 0.66 ± 0.08 mg/g body weight; Seminal Vesicles (mg/g body weight) [2, 8]: 1.81 ± 0.28 mg/g body weight; Prostate (mg/g body weight) [2, 9]: 0.54 ± 0.09 mg/g body weight; Seminal Vesicles (mg/g body weight) [2, 9]: 1.55 ± 0.24 mg/g body weight; Effect on testosterone-mediated re-growth of the ventral prostate gland ([2]; in the presence of testosterone (Table 2)): decreased significantly
CCC(=O)O[C@H]1CC[C@H]2[C@@H]3CCC4=CC(=O)CC[C@]4(C)[C@H]3CC[C@]12C [Testosterone, testosterone propionate, reference compound] | – | – | – | – | – | – | Prostate (mg/g body weight) [2, 10]: 0.77 ± 0.02 mg/g body weight; Seminal Vesicles (mg/g body weight) [2, 10]: 2.38 ± 0.16 mg/g body weight; Prostate (mg/g body weight) [2, 11]: 0.62 ± 0.1 mg/g body weight; Seminal Vesicles (mg/g body weight) [2, 11]: 1.95 ± 0.24 mg/g body weight
O=C1O[C@H]([C@@H](O)CO)C(O)=C1O [Vitamin C (ascorbic acid), ascorbic acid] | 1 | – | – | – | – | – | –
COc1ccc2[nH]cc(CCNC(=O)/C=C/c3ccc(O)c(O)c3)c2c1 [caffeic acid 5-methoxytryptamide, Caffeic Acid 5-Methoxytryptamide] | 3.2 | – | – | – | – | – | –
tocopherol [Vitamin E (tocopherol)] | 1 | – | – | – | – | – | –
